Laboratory results as given in ChEMBL document CHEMBL3217511, “Structure-activity evaluation of new uracil-based non-nucleoside inhibitors of HIV reverse transcriptase” (Medchemcomm, 2013).

Experiments:
[1] = target: Human immunodeficiency virus type 1 reverse transcriptase (Human immunodeficiency virus 1, UniProt Q72547); assay: Inhibition of wild-type HIV1 Reverse transcriptase p51/p66 after 30 mins using alpha-[32P]dATP by liquid scintillation counting
[2] = system: Human immunodeficiency virus type 1 reverse transcriptase (Human immunodeficiency virus 1), Q72547 [L100I]; assay: Inhibition of HIV1 Reverse transcriptase p51/p66 L100I mutant at 10 uM after 30 mins using alpha-[32P]dATP by liquid scintillation counting
[3] = Inhibition of HIV1 Reverse transcriptase p51/p66 G190A mutant after 30 mins using alpha-[32P]dATP by liquid scintillation counting; design: species or system Human immunodeficiency virus 1
[4] = system: Human immunodeficiency virus type 1 reverse transcriptase (Human immunodeficiency virus 1), Q72547 [K103N,Y181C]; assay: Inhibition of HIV1 Reverse transcriptase p51/p66 K103N/Y181C mutant at 10 uM after 30 mins using alpha-[32P]dATP by liquid scintillation counting
[5] = system: Human immunodeficiency virus 1; assay: Inhibition of HIV1 Reverse transcriptase p51/p66 G190A mutant at 10 uM after 30 mins using alpha-[32P]dATP by liquid scintillation counting
[6] = system: Human immunodeficiency virus type 1 reverse transcriptase (Human immunodeficiency virus 1), Q72547 [K103N]; assay: Inhibition of HIV1 Reverse transcriptase p51/p66 K103N mutant at 10 uM after 30 mins using alpha-[32P]dATP by liquid scintillation counting
[7] = target: Human immunodeficiency virus type 1 reverse transcriptase (Human immunodeficiency virus 1) (UniProt Q72547); assay: Inhibition of wild-type HIV1 Reverse transcriptase p51/p66 at 10 uM after 30 mins using alpha-[32P]dATP by liquid scintillation counting
[8] = system: Human immunodeficiency virus type 1 reverse transcriptase (Human immunodeficiency virus 1), Q72547 [V106A]; assay: Inhibition of HIV1 Reverse transcriptase p51/p66 V106A mutant at 10 uM after 30 mins using alpha-[32P]dATP by liquid scintillation counting
[9] = system: Human immunodeficiency virus type 1 reverse transcriptase (Human immunodeficiency virus 1), Q72547 [Y181C]; assay: Inhibition of HIV1 Reverse transcriptase p51/p66 Y181C mutant at 10 uM after 30 mins using alpha-[32P]dATP by liquid scintillation counting
[10] = target: Human immunodeficiency virus type 1 reverse transcriptase (Human immunodeficiency virus 1, UniProt Q72547, K103N); assay: Inhibition of HIV1 Reverse transcriptase p51/p66 K103N mutant after 30 mins using alpha-[32P]dATP by liquid scintillation counting
[11] = target: Human immunodeficiency virus type 1 reverse transcriptase (Human immunodeficiency virus 1, UniProt Q72547, Y181C); assay: Inhibition of HIV1 Reverse transcriptase p51/p66 Y181C mutant after 30 mins using alpha-[32P]dATP by liquid scintillation counting
[12] = target: Human immunodeficiency virus type 1 reverse transcriptase (Human immunodeficiency virus 1, UniProt Q72547, L100I); assay: Inhibition of HIV1 Reverse transcriptase p51/p66 L100I mutant after 30 mins using alpha-[32P]dATP by liquid scintillation counting
[13] = system: Human immunodeficiency virus 1; assay: Selectivity ratio of IC50 for HIV1 Reverse transcriptase p51/p66 K103N mutant to IC50 for wild-type HIV1 Reverse transcriptase p51/p66
[14] = system: Human immunodeficiency virus 1; assay: Selectivity ratio of IC50 for HIV1 Reverse transcriptase p51/p66 L100I mutant to IC50 for wild-type HIV1 Reverse transcriptase p51/p66
[15] = target: Human immunodeficiency virus type 1 reverse transcriptase (Human immunodeficiency virus 1, UniProt Q72547, V106A); assay: Inhibition of HIV1 Reverse transcriptase p51/p66 V106A mutant after 30 mins using alpha-[32P]dATP by liquid scintillation counting
[16] = target: Human immunodeficiency virus type 1 reverse transcriptase (Human immunodeficiency virus 1, UniProt Q72547, K103N/Y181C); assay: Inhibition of HIV1 Reverse transcriptase p51/p66 K103N/Y181C mutant after 30 mins using alpha-[32P]dATP by liquid scintillation counting

## O=C(CCc1ccccc1)OC1C=CC(n2ccc(=O)n(Cc3cc(F)cc(F)c3)c2=O)C1 (centres undefined)
[1]
  IC50: > 100 µM

## O=C(Oc1ccc(Cn2ccc(=O)[nH]c2=O)cc1)c1ccccc1
[1]
  IC50: > 100 µM

## Cc1cc(C)cc(C(=O)OC2C=CC(n3ccc(=O)[nH]c3=O)C2)c1 (centres undefined)
[1]
  IC50: > 100 µM

## O=C(OC1C=CC(n2ccc(=O)n(Cc3ccccc3)c2=O)C1)c1ccccc1 (centres undefined)
[2]
  inhibition: 83%
[3]
  IC50: > 50 µM
[4]
  inhibition: 15%
[5]
  inhibition: < 10%
[6]
  inhibition: 26%
[7]
  inhibition: 45%
[8]
  inhibition: 12%
[9]
  inhibition: 11%

## Cc1cc(C)cc(C(=O)OC2C=CC(n3ccc(=O)n(Cc4ccccc4)c3=O)C2)c1 (centres undefined)
[2]
  inhibition: 77%
[3]
  IC50: > 100 µM
[4]
  inhibition: 23%
[10]
  IC50: 17.3 µM
[5]
  inhibition: < 10%
[6]
  inhibition: 37%
[11]
  IC50: > 20 µM
[12]
  IC50: 2.1 µM
[13]
  Ratio IC50: 2.11
[7]
  inhibition: 52%
[14]
  Ratio IC50: 0.26
[15]
  IC50: > 20 µM
[8]
  inhibition: 14%
[16]
  IC50: > 20 µM
[1]
  IC50: 8.2 µM
[9]
  inhibition: 24%

## O=C(CCc1ccccc1)OC1C=CC(n2ccc(=O)n(Cc3ccccc3)c2=O)C1 (centres undefined)
[1]
  IC50: > 100 µM

## O=C(Cc1ccccc1)OC1C=CC(n2ccc(=O)n(Cc3ccccc3)c2=O)C1 (centres undefined)
[1]
  IC50: 52 µM

## N#Cc1cccc(C(=O)OC2C=CC(n3ccc(=O)n(Cc4ccccc4)c3=O)C2)c1 (centres undefined)
[1]
  IC50: > 100 µM

## O=C(Oc1cccc(Cn2ccc(=O)[nH]c2=O)c1)c1ccccc1
[1]
  IC50: > 100 µM

## O=C(Cc1ccccc1)OC1C=CC(n2ccc(=O)n(Cc3cc(F)cc(F)c3)c2=O)C1 (centres undefined)
[1]
  IC50: > 100 µM

## O=C(Oc1cccc(Cn2ccc(=O)n(Cc3ccccc3)c2=O)c1)c1ccccc1
[1]
  IC50: 32.3 µM

## O=C(OC1C=CC(n2ccc(=O)[nH]c2=O)C1)c1cc(Cl)cc(Cl)c1 (centres undefined)
[1]
  IC50: > 100 µM

## Cc1ccnc2c1NC(=O)c1cccnc1N2C1CC1 [NEVIRAPINE]
[2]
  inhibition: 48%
[3]
  IC50: > 2000 µM
[4]
  inhibition: < 10%
[5]
  inhibition: < 10%
[6]
  inhibition: < 10%
[8]
  inhibition: < 10%
[9]
  inhibition: < 10%

## O=C(OC1C=CC(n2ccc(=O)n(Cc3ccccc3)c2=O)C1)c1cc(Cl)cc(Cl)c1 (centres undefined)
[2]
  inhibition: 89%
[3]
  IC50: > 100 µM
[4]
  inhibition: 25%
[10]
  IC50: 8.8 µM
[5]
  inhibition: < 10%
[6]
  inhibition: 53%
[11]
  IC50: > 10 µM
[12]
  IC50: 1.29 µM
[13]
  Ratio IC50: 1.69
[7]
  inhibition: 59%
[14]
  Ratio IC50: 0.25
[15]
  IC50: > 10 µM
[8]
  inhibition: 20%
[16]
  IC50: > 10 µM
[1]
  IC50: 5.1 µM
[9]
  inhibition: 17%

## N#Cc1cccc(C(=O)OC2C=CC(n3ccc(=O)[nH]c3=O)C2)c1 (centres undefined)
[1]
  IC50: > 100 µM

## O=C(OC1C=CC(n2ccc(=O)n(C(=O)c3cc(Cl)cc(Cl)c3)c2=O)C1)c1cc(Cl)cc(Cl)c1 (centres undefined)
[1]
  IC50: > 100 µM

## O=C(Oc1ccc(Cn2ccc(=O)n(Cc3ccccc3)c2=O)cc1)c1ccccc1
[1]
  IC50: > 100 µM

## Cc1cc(C)cc(C(=O)OC2C=CC(n3ccc(=O)n(C(=O)c4cc(C)cc(C)c4)c3=O)C2)c1 (centres undefined)
[1]
  IC50: > 100 µM

## O=C(Oc1ccccc1Cn1ccc(=O)n(Cc2ccccc2)c1=O)c1ccccc1
[1]
  IC50: > 100 µM

## O=C(Oc1ccccc1Cn1ccc(=O)[nH]c1=O)c1ccccc1
[1]
  IC50: > 100 µM

## O=C(Oc1cccc(Cn2ccc(=O)[nH]c2=O)c1)c1cc(Cl)cc(Cl)c1
[1]
  IC50: 42 µM
